According to the supplement of paper PMC8149375:

What was measured:
Conditions in all cases: treatment: drug alone; 5 days
[1] = test system: TK-10; test: AUC of dose-response viability curve, drug alone (arbitrary (AUC of normalised viability)); higher = less growth inhibition
Experimental: (§1)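 Primary HTS: 8 RCC cell lines treated with 8 doses (up to 10 uM) of each library drug alone for 5 days; viability read by CellTiter-Glo and normalised to DMSO. GI50 was fitted with XLfit (4-parameter), AUC is the area under the dose-response curve, and minimum viability is the lowest fraction of DMSO viability across doses.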

[2] = test system: A498; test: as above
Experimental: as §1

[3] = test system: SN12C; test: as above
Experimental: as §1

[4] = test system: UO-31; test: as above
Experimental: as §1

[5] = test system: ACHN; test: as above
Experimental: as §1

[6] = test system: 786-O; test: as above
Experimental: as §1

[7] = test system: 769-P; test: as above
Experimental: as §1

[8] = test system: CAKI-1; test: as above
Experimental: as §1

[9] = test system: TK-10; test: GI50, drug alone; higher = less potent
Experimental: as §1

[10] = test system: A498; test: GI50, drug alone; higher = less potent
Experimental: as §1

[11] = test system: SN12C; test: GI50, drug alone; higher = less potent
Experimental: as §1

[12] = test system: UO-31; test: GI50, drug alone; higher = less potent
Experimental: as §1

[13] = test system: ACHN; test: GI50, drug alone; higher = less potent
Experimental: as §1

[14] = test system: 786-O; test: GI50, drug alone; higher = less potent
Experimental: as §1

[15] = test system: 769-P; test: GI50, drug alone; higher = less potent
Experimental: as §1

[16] = test system: CAKI-1; test: GI50, drug alone; higher = less potent
Experimental: as §1

[17] = test system: TK-10; test: minimum viability across doses, drug alone, relative to DMSO (fraction); higher = less growth inhibition
Experimental: as §1

[18] = test system: A498; test: as above
Experimental: as §1

[19] = test system: SN12C; test: as above
Experimental: as §1

[20] = test system: UO-31; test: as above
Experimental: as §1

[21] = test system: ACHN; test: as above
Experimental: as §1

[22] = test system: 786-O; test: as above
Experimental: as §1

[23] = test system: 769-P; test: as above
Experimental: as §1

[24] = test system: CAKI-1; test: as above
Experimental: as §1

Structure (SMILES) | AUC of dose-response viability curve [1] | AUC of dose-response viability curve [2] | AUC of dose-response viability curve [3] | AUC of dose-response viability curve [4] | AUC of dose-response viability curve [5] | AUC of dose-response viability curve [6] | AUC of dose-response viability curve [7] | AUC of dose-response viability curve [8] | GI50, drug alone [9] [µM] | GI50, drug alone [10] [µM] | GI50, drug alone [11] [µM] | GI50, drug alone [12] [µM] | GI50, drug alone [13] [µM] | GI50, drug alone [14] [µM] | GI50, drug alone [15] [µM] | GI50, drug alone [16] [µM] | minimum viability across doses [17] | minimum viability across doses [18] | minimum viability across doses [19] | minimum viability across doses [20] | minimum viability across doses [21] | minimum viability across doses [22] | minimum viability across doses [23] | minimum viability across doses [24]
CNC(=O)c1cc(Oc2ccc(NC(=O)Nc3ccc(Cl)c(C(F)(F)F)c3)cc2)ccn1.Cc1ccc(S(=O)(=O)O)cc1 [Sorafenib (Nexavar)] | 3.25 | 3.4 | 2.9 | 2.44 | 3.46 | 2.7 | 3.31 | 3.55 | > 10 | > 10 | 5.13 | 0.734 | 8.05 | 4.87 | > 10 | 9.2 | 0.513 | 0.627 | 0.154 | 0.00476 | 0.0796 | 0.0994 | 0.592 | 0.18
O=C(NCCCNc1nc(Nc2cccc(NC(=O)N3CCCC3)c2)ncc1I)c1cccs1 [BX-795] | 2.59 | 4.14 | 2.8 | 4.13 | 2.83 | 1.64 | 3.03 | 2.66 | 3.93 | > 10 | 7.51 | 5.04 | 2.94 | 0.0999 | 5.63 | 2.67 | 0.218 | 0.917 | 0.458 | 0.0155 | 0.217 | 0.00247 | 0.149 | 0.17
O=C(NC[C@H](O)CO)c1ccncc1Nc1ccc(I)cc1F | 2.12 | 4.02 | 2.62 | 4.06 | 2.11 | 1.84 | 2.44 | 2.27 | 0.715 | > 10 | 5.97 | 9.22 | 0.56 | 0.247 | 1.14 | 0.654 | 0.282 | 0.687 | 0.409 | 0.367 | 0.273 | 0.292 | 0.268 | 0.203
CCN(CC)CCNC(=O)c1c(C)[nH]c(/C=C2\C(=O)Nc3ccc(F)cc32)c1C.O=C(O)C[C@H](O)C(=O)O [Sunitinib Malate (Sutent)] | 2.82 | 3.58 | 2.6 | 3.93 | 2.33 | 3.62 | 3.15 | 2.77 | 3.29 | 5.2 | 1.9 | 3.15 | 0.65 | 3.98 | 5.36 | 1.49 | 0.186 | 0.21 | 0.0296 | 0.0171 | 0.0641 | 0.0182 | 0.156 | 0.0138
COc1ccc2c(OCc3nnc4ccc(-c5ccccc5)nn34)ccnc2c1 [AMG-208] | 3.11 | 4.38 | 3.4 | 4.94 | 3.47 | 3.53 | 3.41 | 2.66 | > 10 | > 10 | > 10 | > 10 | > 10 | > 10 | > 10 | > 10 | 0.804 | 1.15 | 0.912 | 1.25 | 0.888 | 0.869 | 0.879 | 0.678
Br.Cc1ccc(C(=O)Cn2c3c(sc2=N)CCCC3)cc1 [Pifithrin-α] | 2.84 | 4.11 | 3.09 | 3.69 | 3.14 | 1.95 | 3.5 | 3.26 | > 10 | > 10 | > 10 | > 10 | > 10 | > 10 | > 10 | > 10 | 0.636 | 0.946 | 0.76 | 0.864 | 0.743 | 0.385 | 0.918 | 0.871
CN1CCN(CCOc2cc(OC3CCOCC3)c3c(Nc4c(Cl)ccc5c4OCO5)ncnc3c2)CC1 [Saracatinib (AZD0530)] | 2.45 | 3.69 | 2.84 | 4.46 | 2.46 | 2.35 | 2.47 | 3.08 | 1.22 | > 10 | > 10 | 8.99 | 1.03 | 2.81 | 1.26 | 2.34 | 0.109 | 0.958 | 0.504 | 0.447 | 0.22 | 0.302 | 0.0835 | 0.213
CC[C@@H]1C(=O)N(C)c2cnc(Nc3ccc(C(=O)NC4CCN(C)CC4)cc3OC)nc2N1C1CCCC1 [BI 2536] | 1.91 | 1.97 | 1.37 | 1.61 | 1.37 | 0.585 | 1.58 | 1.78 | 0.317 | 0.458 | 0.0549 | 0.0839 | 0.0499 | 0.0101 | 0.12 | 0.0936 | 0.0909 | 0.0641 | 0.0427 | 0.0104 | 0.121 | 0.0067 | 0.049 | 0.121
CC(C)CC(=O)Nc1n[nH]c2c1CN(C(=O)C1CCN(C)CC1)C2(C)C | 2.7 | 2.94 | 1.9 | 3 | 1.92 | 1.4 | 3.01 | 2.75 | 3.08 | 1.48 | 0.262 | 1.06 | 0.276 | 0.12 | 4.34 | 1.77 | 0.174 | 0.00722 | 0.0129 | 0.00653 | 0.0324 | 0.0023 | 0.189 | 0.0863
O=c1sn(-c2cccc3ccccc23)c(=O)n1Cc1ccccc1 [Tideglusib] | 2.95 | 3.82 | 3.28 | 4.53 | 3.19 | 2.12 | 3.48 | 3.54 | > 10 | > 10 | > 10 | > 10 | > 10 | 0.0203 | > 10 | > 10 | 0.736 | 0.979 | 0.871 | 1.14 | 0.822 | 0.485 | 0.948 | 0.941
C[C@H](NC(=O)/C(C#N)=C/c1cccc(Br)n1)c1ccccc1 [WP1066] | 3.62 | 4.19 | 3.23 | 4.12 | 3.23 | 3.07 | 3.44 | 3.38 | > 10 | > 10 | > 10 | 7.86 | 6.7 | 4.47 | 5.25 | 8.92 | 0.932 | 0.986 | 0.581 | 0.00632 | 0.13 | 0.015 | 0.0246 | 0.371
CNC(=O)c1cc(COc2nnc(Nc3ccc(Cl)cc3)c3ccoc23)ccn1 [Telatinib (BAY 57-9352)] | 2.96 | 4.32 | 3.27 | 4.45 | 3.42 | 2.61 | 3.4 | 3.3 | 6.45 | > 10 | > 10 | > 10 | 9.99 | 3.22 | 9.79 | 6.76 | 0.319 | 0.951 | 0.79 | 0.749 | 0.497 | 0.0383 | 0.484 | 0.267
C[C@@H]1CN(CC(=O)Nc2ccc3c(c2)Cc2cccc(-c4cc(=O)cc(N5CCOCC5)o4)c2S3)C[C@H](C)O1 | 3.25 | 4.69 | 3.35 | 6.19 | 3.15 | 3.37 | 3.53 | 2.8 | > 10 | > 10 | > 10 | > 10 | > 10 | 6.61 | > 10 | 4 | 0.701 | 0.893 | 0.646 | 1.35 | 0.548 | 0.35 | 0.855 | 0.224
CC(C)c1cnn2c(NCc3ccccc3)cc(NCCCCCCN)nc12.Cl [BS-181 HCl] | 2.97 | 4.29 | 3.22 | 5.07 | 3.3 | 3.43 | 3.58 | 2.84 | > 10 | > 10 | > 10 | > 10 | > 10 | 9.75 | > 10 | > 10 | 0.696 | 1.1 | 0.842 | 1.15 | 0.54 | 0.424 | 0.902 | 0.753
CCn1c(N)c(C(=O)NC)c(=O)c2ccc(C#C[C@@](C)(O)COC)nc21 | 3.45 | 3.88 | 3.44 | 4.24 | 3.52 | 3.31 | 3.92 | 3.62 | > 10 | > 10 | > 10 | > 10 | > 10 | > 10 | > 10 | > 10 | 0.9 | 0.887 | 0.849 | 0.992 | 0.909 | 0.869 | 1.02 | 0.845
Nc1nc(N)c2nc(-c3cccc(O)c3)c(-c3cccc(O)c3)nc2n1 [TG100-115] | 3.25 | 4.15 | 3.31 | 5.18 | 3.33 | 3.66 | 3.5 | 2.42 | > 10 | > 10 | > 10 | > 10 | > 10 | > 10 | > 10 | > 10 | 0.871 | 0.862 | 0.804 | 1.2 | 0.685 | 0.873 | 0.912 | 0.567
Cc1ccccc1-n1c(Cn2ncc3c(N)ncnc32)nc2cccc(C)c2c1=O [PIK-293] | 3.07 | 3.9 | 3.16 | 4.72 | 3.53 | 2.42 | 3.49 | 3.46 | > 10 | > 10 | > 10 | > 10 | > 10 | > 10 | > 10 | > 10 | 0.734 | 0.982 | 0.837 | 1.2 | 0.928 | 0.581 | 0.949 | 0.902
